test system: inclusion of exon 7 of SMN2 into mRNA transcribed from the SMN2-A minigene; assay: Fold Activation: luciferase reporter, SMN2-A minigene construct versus SMN2-G minigene construct, in stably transfected HEK293H cells; format: cell-based, human; settings: ratio of First Activation using the SMN2-A construct divided by Second Activation using the SMN2-G construct
From the text: In a specific embodiment, the first cell and the second cell are the same cell type. In some embodiments, the first cell and the second cell are the same cell type and are obtained from the same source or clone. In some embodiments, the first reporter gene and the second reporter gene are the same reporter gene. In other embodiments, the first reporter gene and second reporter gene are different reporter genes. A compound that increases the inclusion of exon 7 of SMN2 into mRNA transcribed from the SMN2 gene will result in a Fold Activation derived from a higher ratio of the First Activation:
[formula] [formula] [formula] In some embodiments, both the amount and activity of the first and second fusion proteins are detected. Accordingly, as used herein, the Fold Activation for a compound that modulates the inclusion of exon 7 of SMN2 into mRNA transcribed from the SMN2 gene is a ratio of the First Activation divided by the Second Activation.
The HEK293H cell line stably transfected with the SMN2-A minigene construct was utilized in the HTS. HTS was performed by plating 10,000 cells in each well of a 384-well plate. Each 384-well plate contained 64 control wells used as an internal standard: 16 wells were used as a total control (no test compound, only compound solvent), 16 wells were used as reference standards representing background readings (high inhibitor concentration) and 32 wells were prepared to provide an 8-point dose response curve of puromycin as a non-specific standard control inhibitor. The remaining 320 wells contained individual test compounds. The cells were grown overnight in the presence of test compounds or controls at 37° C. in 5% CO2. After 24 hours, the amount of luminescence was determined using a ViewLux Imaging system (Perkin Elmer).
Using the SMN2-A minigene construct, a HTS was performed testing a compound library. The amount of the fusion protein expressed from the minigene construct was determined by measuring luciferase activity as described herein. […] Enhancers of fusion protein expression were defined as those compounds that increased luciferase activity by at least three standard deviations above the mean. Based on this analysis, test compounds of Formula (I) were identified as hits and were subsequently confirmed by testing the compounds under the same conditions as in the original HTS. To ensure that the increase in luciferase activity detected in the HTS was due to increased inclusion of exon 7 of SMN2 into mRNA transcripts from the SMN2-A minigene construct, each compound was tested in two different cell lines: the cell line, which was used in the original HTS (HEK293H containing the SMN2-A minigene construct), and a HEK293H cell line that contained the SMN2-G minigene construct.
Each compound was tested at four concentrations: 15 μM, 3 μM, 0.6 μM, 0.12 μM.
The Fold Activation results are provided as a ratio of a First Activation using the SMN-2A construct divided by a Second Activation using the SMN-2G construct, wherein 1 star (*) represents active compounds with a fold increase ratio between 1.1-1.3; 2 stars (**) represent active compounds with a fold increase ratio between 1.3-2.0; 3 stars (***) represent active compounds with a fold increase ratio greater than 2.0.

**Q.** Which “Activity (Fold Activation)” value does the source give for `O=C(O)c1ccc2nc(-c3ccccc3F)oc2c1` [Cpd 66, 2-(2-fluoro-phenyl)-benzooxazole-6-carboxylic acid] here?
**A.** The value was “*** (3 stars (***) represent active compounds with a fold increase ratio greater than 2.0)”.

**Q.** With `Cc1cc(-c2nc3ccc(C(=O)O)cc3o2)c(C)o1` [Cpd 67, 2-(2,5-dimethyl-furan-3-yl)-benzooxazole-6-carboxylic acid] as the compound, how does the “Activity (Fold Activation)” value read?
**A.** Its value is “** (2 stars (**) represent active compounds with a fold increase ratio between 1.3-2.0)”.

**Q.** `O=C(O)c1ccc2nc(-c3cccnc3)oc2c1` [Cpd 69, 2-pyridin-3-yl-benzooxazole-6-carboxylic acid] was tested. Which “Activity (Fold Activation)” value did it give?
**A.** Its value is “* (1 star (*) represents active compounds with a fold increase ratio between 1.1-1.3)”.

**Q.** With `O=C(O)c1cccc(-c2nc3ccc(C(=O)N4CCCC4)cc3o2)c1` [Cpd 71, 3-[6-(pyrrolidine-1-carbonyl)-benzooxazol-2-yl]-benzoic acid] as the compound, how does the “Activity (Fold Activation)” value read?
**A.** The value was “** (2 stars (**) represent active compounds with a fold increase ratio between 1.3-2.0)”.

**Q.** With `NC(=O)c1cccc(-c2nc3ccc(NCCc4ccccc4)cc3o2)c1` [Cpd 73, 3-(6-phenethylamino-benzooxazol-2-yl)-benzamide] as the compound, how does the “Activity (Fold Activation)” value read?
**A.** Its value is “* (1 star (*) represents active compounds with a fold increase ratio between 1.1-1.3)”.

**Q.** `Cc1cc(-c2nc3cc(C(=O)O)ccc3o2)c(C)o1` [Cpd 77, 2-(2,5-dimethyl-furan-3-yl)-benzooxazole-5-carboxylic acid] was tested. Which “Activity (Fold Activation)” value did it give?
**A.** Its value is “* (1 star (*) represents active compounds with a fold increase ratio between 1.1-1.3)”.

**Q.** How did the “Activity (Fold Activation)” value turn out when `CN1CCCN(c2ccc3nc(-c4cccc(C(=O)O)c4)oc3c2)CC1` [Cpd 81, 3-[6-(4-methyl-[1,4]diazepan-1-yl)-benzooxazol-2-yl]-benzoic acid] was run?
**A.** Its value is “* (1 star (*) represents active compounds with a fold increase ratio between 1.1-1.3)”.

**Q.** For `O=C(O)c1cccc(-c2nc3ccc(Oc4ccccc4)cc3o2)c1` [Cpd 82, 3-(6-phenoxy-benzooxazol-2-yl)-benzoic acid], which “Activity (Fold Activation)” value is on record?
**A.** The value was “** (2 stars (**) represent active compounds with a fold increase ratio between 1.3-2.0)”.

**Q.** How did the “Activity (Fold Activation)” value turn out when `O=C(O)c1ccc2oc(-c3ccc(N4CCCC4)nc3)nc2c1` [Cpd 89, 2-(6-pyrrolidin-1-yl-pyridin-3-yl)-benzooxazole-5-carboxylic acid] was run?
**A.** The value was “*** (3 stars (***) represent active compounds with a fold increase ratio greater than 2.0)”.

**Q.** How did the “Activity (Fold Activation)” value turn out when `O=C(O)c1ccc2oc(-c3ccc(N4CCOCC4)nc3)nc2c1` [Cpd 90, 2-(6-morpholin-4-yl-pyridin-3-yl)-benzooxazole-5-carboxylic acid] was run?
**A.** Its value is “** (2 stars (**) represent active compounds with a fold increase ratio between 1.3-2.0)”.

**Q.** `O=C(O)c1ccc2oc(-c3ccc(N4CCCCC4)nc3)nc2c1` [Cpd 91, 2-(3,4,5,6-tetrahydro-2H-[1,2′]bipyridinyl-5′-yl)-benzooxazole-5-carboxylic acid] was tested. Which “Activity (Fold Activation)” value did it give?
**A.** The value was “** (2 stars (**) represent active compounds with a fold increase ratio between 1.3-2.0)”.

**Q.** How did the “Activity (Fold Activation)” value turn out when `O=C(O)c1ccc2nc(-c3ccc(N4CCC4)nc3)oc2c1` [Cpd 93, 2-(6-azetidin-1-yl-pyridin-3-yl)-benzooxazole-6-carboxylic acid] was run?
**A.** Its value is “** (2 stars (**) represent active compounds with a fold increase ratio between 1.3-2.0)”.

**Q.** How did the “Activity (Fold Activation)” value turn out when `O=C(O)c1ccc2oc(-c3ccc(OC(F)(F)F)cc3)nc2c1` [Cpd 100, 2-(4-trifluoromethoxy-phenyl)-benzooxazole-5-carboxylic acid] was run?
**A.** Its value is “** (2 stars (**) represent active compounds with a fold increase ratio between 1.3-2.0)”.

**Q.** Which “Activity (Fold Activation)” value does the source give for `CN(Cc1ccccc1)c1ccc2nc(-c3cccc(C(=O)O)c3)oc2c1` [Cpd 102, 3-[6-(benzyl-methyl-amino)-benzooxazol-2-yl]-benzoic acid] here?
**A.** Its value is “** (2 stars (**) represent active compounds with a fold increase ratio between 1.3-2.0)”.

**Q.** For `O=C(O)c1ccc2oc(-c3cccc(OC(F)(F)F)c3)nc2c1` [Cpd 105, 2-(3-trifluoromethoxy-phenyl)-benzooxazole-5-carboxylic acid], which “Activity (Fold Activation)” value is on record?
**A.** Its value is “* (1 star (*) represents active compounds with a fold increase ratio between 1.1-1.3)”.

**Q.** `NC(=O)c1cccc(-c2nc3ccc(Nc4ccccc4)cc3o2)c1` [Cpd 106, 3-(6-phenylamino-benzooxazol-2-yl)-benzamide] was tested. Which “Activity (Fold Activation)” value did it give?
**A.** Its value is “* (1 star (*) represents active compounds with a fold increase ratio between 1.1-1.3)”.

**Q.** `NC(=O)c1cccc(-c2nc3ccc(N4CCCCC4)cc3o2)c1` [Cpd 110, 3-(6-piperidin-1-yl-benzooxazol-2-yl)-benzamide] was tested. Which “Activity (Fold Activation)” value did it give?
**A.** The value was “* (1 star (*) represents active compounds with a fold increase ratio between 1.1-1.3)”.

**Q.** `COc1ccc2nc(-c3cccc(C(N)=O)c3)oc2c1` [Cpd 111, 3-(6-methoxy-benzooxazol-2-yl)-benzamide] was tested. Which “Activity (Fold Activation)” value did it give?
**A.** Its value is “** (2 stars (**) represent active compounds with a fold increase ratio between 1.3-2.0)”.

**Q.** Which “Activity (Fold Activation)” value does the source give for `Cc1ccc2nc(-c3cccc(C(N)=O)c3)oc2c1` [Cpd 112, 3-(6-methyl-benzooxazol-2-yl)-benzamide] here?
**A.** The value was “** (2 stars (**) represent active compounds with a fold increase ratio between 1.3-2.0)”.

**Q.** `CC(=O)Nc1ccc2oc(-c3ccc(Br)c(C)c3)nc2c1` [Cpd 128, N-[2-(4-bromo-3-methyl-phenyl)-benzooxazol-5-yl]-acetamide] was tested. Which “Activity (Fold Activation)” value did it give?
**A.** Its value is “*** (3 stars (***) represent active compounds with a fold increase ratio greater than 2.0)”.
